By IC50 is commonly meant the concentration that inhibits the measured activity by half. A low value points to higher potency.

The first experiment deals with T1, SMS2 (Homo sapiens, UniProt Q8NHU3).
T1 construct: CAO, Yu research team, National Protein Scientific Center (Shanghai); supplied by an outside laboratory, not a commercial vendor
T1 sequence (Q8NHU3 1-365): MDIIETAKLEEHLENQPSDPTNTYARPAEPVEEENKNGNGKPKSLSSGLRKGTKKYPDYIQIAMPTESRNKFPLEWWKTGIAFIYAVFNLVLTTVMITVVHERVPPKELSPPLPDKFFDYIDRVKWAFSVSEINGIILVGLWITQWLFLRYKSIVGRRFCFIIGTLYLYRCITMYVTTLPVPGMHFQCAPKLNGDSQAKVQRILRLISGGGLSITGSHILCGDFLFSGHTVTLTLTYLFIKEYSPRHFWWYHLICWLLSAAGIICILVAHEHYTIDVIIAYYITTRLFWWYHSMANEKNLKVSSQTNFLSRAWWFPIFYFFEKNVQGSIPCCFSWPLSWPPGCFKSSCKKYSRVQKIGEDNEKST
As to the kind of experiment: SMS2 inhibitory activity in vitro, HPLC fluorescence quantitative detection (C6-NBD-ceramide to C6-NBD-SM). The class given is biochemical. Particulars: 1 µM test compound; SMS2 pure enzyme; 37°C, 30 minutes; average of two measurements; read-out: Inhibition rate on SMS2 at C/µM 1. The text has this: • 1. Electro-thermostatic water bath, from Shanghai Yiheng Technology Co., Ltd.); • 2. Vortex Mixer, with model ID of XW-80A, from Shanghai Jingke Industrial Co., Ltd.; • 3. […] High Performance Liquid Chromatography Agilent 1100, equipped with a quaternary pump, vacuum degassing, and FLD fluorescence detector, from Agilent Technologies, Palo Alto, CA, USA; • 5. HPLC column COSMOSIL 5C18-MS-II (4.6mm I.D. X 250mm); • 6. […] The organic solvents used in the present disclosure were purchased from Shanghai National Reagent Company, wherein methanol was pure chromatography; water was ultra-pure water which is filtrated by Milli-Q pump, deionized and ultra-filtrated with 0.22 µm membrane; and other biological consumables were purchased from domestic companies; • 8. Preparation of test compound solutions: each test compound was accurately weighed and dissolved in an appropriate volume of DMSO to prepare a 10 mmol/L stock solution. The stock solution was then diluted with an appropriate volume of DMSO to achieve the desired working concentration; • 9. SMS2 pure enzyme, DDM solution and buffer solution were provided by CAO, Yu research team from National Protein Scientific Center (Shanghai).
79 µl of the diluted enzyme solution were transferred into a 1.5 mL EP tube, 1 µl of inhibitor DMSO solution were added thereto, vortexing for 15 seconds, followed by standing at room temperature for 5 minutes. 20 µl of a mixed solution of DMPC and C6-NBD-ceramide were added, vortexing for 15 seconds, and incubated at 37°C for 30 minutes. 200 µl of anhydrous ethanol were added to quench the reaction, vortexing for 15 seconds. 200 µl of the reaction solution were taken out and stored at 4°C and avoided light for HPLC detection.
The peak area values of A(sm) and A(ceramide) in the HPLC chromatogram corresponding to C6-NBD-SM and C6-NBD-Ceramide in the DMSO group and inhibitor group samples were analyzed and recorded, and the inhibition rate of the test compound was calculated according to the following formula. Inhibition rate = (Peak area values of DMSO group−Peak area values of Inhibitor group)/(Peak area values of DMSO group) × 100% [formula]
Take `COc1cccc(COc2ccsc2C(=O)Nc2cccnc2)c1` [1-58, 3-(3-methoxybenzyloxy)-N-(pyridin-3-yl)thiophene-2-carboxamide]: the inhibition at 1 µM came out at 70%.
The same measure, in the same setting: with `CCCCCCCOc1ccc(Cl)cc1COc1ccsc1C(=O)Nc1cccnc1` [1-74, 3-(5-chloro-2-(heptyloxy)benzyloxy)-N-(pyridin-3-yl)thiophene-2-carboxamide] the figure was 98%; with `CCCCCCOc1cc(Cl)ccc1COc1ccsc1C(=O)Nc1cccnc1` [1-71, 3-(4-chloro-2-(hexyloxy)benzyloxy)-N-(pyridin-3-yl)thiophene-2-carboxamide], 95%.
The same measure, in the same setting: with `O=C(Nc1cccnc1)c1sccc1OCc1cc(OP(=O)(O)O)ccc1Cl` [1-26] the figure was 13%; with `CCc1ccccc1COc1ccccc1C(=O)Nc1cccnc1` [12-1 (LY93), 2-(2-ethylbenzyloxy)-N-(pyridin-3-yl)benzamide, reference compound], 66%.
Turning to `O=C(Nc1cccnc1)c1sccc1OCc1cccc(F)c1` [1-45, 3-(3-fluorobenzyloxy)-N-(pyridin-3-yl)thiophene-2-carboxamide], the inhibition at 1 µM stood at 67%.
On the same count and under the same terms, with `O=C(Nc1cccnc1)c1sccc1OCc1ccccc1OCCCCCCCl` [1-76, 3-(2-(6-chlorohexyloxy)benzyloxy)-N-(pyridin-3-yl)thiophene-2-carboxamide] the figure was 93%; with `CCCCCOc1cccc(Cl)c1COc1ccsc1C(=O)Nc1cccnc1` [1-38, 3-(2-(n-pentyloxy)-6-chlorobenzyloxy)-N-(pyridin-3-yl)thiophene-2-carboxamide], 91%; with `O=C(Nc1cccnc1)c1sccc1OCc1ccccc1OC(F)(F)F` [1-53, 3-(2-(trifluoromethoxy)benzyloxy)-N-(pyridin-3-yl)thiophene-2-carboxamide], 87%.
As for `COc1ccc2ccccc2c1COc1ccsc1C(=O)Nc1cccnc1` [1-16, 3-[(2-methoxynaphthalen-1-yl)methoxy]-N-(pyridin-3-yl)thiophene-2-carboxamide], the inhibition at 1 µM stood at 78%.
For the compound `O=C(Nc1cc(F)c(F)c(F)c1)c1sccc1OCc1ccccc1` [12-10], the inhibition at 1 µM is -30%.
For `O=C(Nc1cccnc1)c1sccc1OCc1ccccc1OCCc1ccccc1` [1-70, 3-(2-(phenylethoxy)benzyloxy)-N-(pyridin-3-yl)thiophene-2-carboxamide], the inhibition at 1 µM came out at 95%.
As for `CCCCCCOc1ccc(Cl)cc1COc1ccsc1C(=O)Nc1cccnc1` [1-73, 3-(5-chloro-2-(hexyloxy)benzyloxy)-N-(pyridin-3-yl)thiophene-2-carboxamide], the inhibition at 1 µM came out at 90%.
Same read-out and setting: with `O=C(Nc1cccnc1)c1sccc1OCc1cccc2ccccc12` [1-10, 3-(naphthalen-1-ylmethoxy)-N-(pyridin-3-yl)thiophene-2-carboxamide] the figure was 86%.
Consider `CC(C)Oc1ccccc1COc1ccsc1C(=O)Nc1cccnc1` [1-82, 3-(2-isopropoxybenzyloxy)-N-(pyridin-3-yl)thiophene-2-carboxamide], for which the inhibition at 1 µM came out at 80%.
Still for that read-out and setting: with `O=C(Nc1cccnc1)c1sccc1OCc1ccccc1C(F)(F)F` [1-59, 3-(2-(trifluoromethyl)benzyloxy)-N-(pyridin-3-yl)thiophene-2-carboxamide] the figure was 71%.
Still for that read-out and setting: next, `O=C(Nc1ccncc1)c1sccc1OCc1ccccc1` [12-11]: 7%; `Cc1ccc(NC(=O)c2sccc2OCc2ccccc2)cn1` [12-12]: 7%; `O=C(Nc1cccnc1)c1sccc1OCc1ccccc1-c1ccccc1` [1-94, 3-[(1,1'-Biphenyl-2-yl)methoxy]-N-(pyridin-3-yl)thiophene-2-carboxamide]: 52%.
The same measure, in the same setting: with `O=C(Nc1cccnc1)c1sccc1OCc1csc2ccccc12` [1-66, 3-(benzo[b]thiophen-3-ylmethoxy)-N-(pyridin-3-yl)thiophene-2-carboxamide] the figure was 86%.
On to `O=C(Nc1cc(F)ccn1)c1sccc1OCc1ccccc1` [12-4, 3-benzyloxy-N-(4-fluoropyridin-2-yl)thiophene-2-carboxamide], for which the inhibition at 1 µM stood at 3%.
Consider `O=C(Nc1cccnc1)c1sccc1OCc1ccccc1OC(F)F` [1-85, 3-(2-difluoro-methoxybenzyloxy)-N-(pyridin-3-yl)thiophene-2-carboxamide], for which the inhibition at 1 µM was determined as 73%.
The same measure, in the same setting: with `O=C(Nc1cccnc1)c1sccc1OCc1ccccc1F` [1-44, 3-(2-fluorobenzyloxy)-N-(pyridin-3-yl)thiophene-2-carboxamide] the figure was 54%; with `COc1ccc(OC)c(COc2ccsc2C(=O)Nc2cccnc2)c1` [1-98, 3-(2,5-dimethoxybenzyloxy)-N-(pyridin-3-yl)thiophene-2-carboxamide], 50%.

Staying with this experiment, now noted: 10 µM test compound; SMS2 pure enzyme; 37°C, 30 minutes; average of two measurements; read-out: Inhibition rate on SMS2 at C/µM 10.
Consider `Cc1ccc(NC(=O)Cc2ccccc2COc2ccsc2C(=O)Nc2cccnc2)nc1` [12-8, 3-(2-(2-((5-methylpyridin-2-yl)amino)-2-oxoethyl)benzyloxy)-N-(pyridin-3-yl) thiophene-2-carboxamide], for which the inhibition at 10 µM was 7%.
Same read-out and setting: with `O=C(Nc1cccnc1)c1sccc1OCc1ccsc1` [1-78, 3-(thiophen-3-ylmethoxy)-N-(pyridin-3-yl)thiophene-2-carboxamide] the figure was 59%; with `O=C(Nc1cc(Cl)ccn1)c1sccc1OCc1ccccc1` [1-6, 3-benzyloxy-N-(4-chloropyridin-2-yl)thiophene-2-carboxamide], 50%.
The same measure, in the same setting: next, `O=C(Nc1cccnc1)c1cncnc1OCc1ccccc1` [12-19, 4-benzyloxy-N-(pyridin-3-yl)pyrimidin-5-carboxamide]: 18%; `O=C(Nc1cncnc1)c1sccc1OCc1ccccc1` [1-64, 3-benzyloxy-N-(pyrimidin-5-yl)thiophene-2-carboxamide]: 51%; `O=C(Nc1cccnc1)c1sccc1OCc1ccc(F)cc1` [1-46, 3-(4-fluorobenzyloxy)-N-(pyridin-3-yl)thiophene-2-carboxamide]: 70%.
On the same count and under the same terms, next, `CCCCOc1ccsc1C(=O)Nc1cccnc1` [1-95]: 50%; `CN(C(=O)c1sccc1OCc1ccccc1)c1cccnc1` [1-62, 3-benzyloxy-N-methyl-(pyridin-3-yl)thiophene-2-carboxamide]: 57%.
On to `CCOC(=O)CCCCCOc1ccccc1COc1ccsc1C(=O)Nc1cccnc1` [1-18, 6-(2-[(2-(pyridin-3-ylcarbamoyl)thiophene-3-yl)oxymethyl]phenoxy)ethyl hexanoate], for which the inhibition at 10 µM was determined as 97%.
In the case of `O=C(Nc1cccc(O)n1)c1sccc1OCc1ccccc1` [1-9, 3-benzyloxy-N-(6-hydroxypyridine-2-yl)thiophene-2-carboxamide], the inhibition at 10 µM was found to be 50%.
With `O=C(Nc1cccnc1)c1sccc1OCc1cccc2c1Oc1c(F)c(F)c(F)c(F)c1O2` [1-19, N-(pyridin-3-yl)-3-[(6,7,8,9-tetrafluorodibenzo[b,e][1,4]dioxin-1-yl)methoxy]thiophene-2-carboxamide], the inhibition at 10 µM came out at 77%.
For `O=C(Nc1cccnc1)c1cnccc1OCc1ccccc1` [12-16, 4-benzyloxy-N-(pyridin-3-yl)pyridin-3-carboxamide], the inhibition at 10 µM stood at 17%.
Still for that read-out and setting: with `O=C(Nc1cccnc1)c1sccc1OCc1cccs1` [1-77, 3-(thiophen-2-ylmethoxy)-N-(pyridin-3-yl)thiophene-2-carboxamide] the figure was 65%; with `O=C(Nc1cccnc1)c1nccnc1OCc1ccccc1` [12-20], 16%.
Still for that read-out and setting: with `COc1ccc(COc2ccsc2C(=O)Nc2cccnc2)cc1` [1-56, 3-(4-methoxybenzyloxy)-N-(pyridin-3-yl)thiophene-2-carboxamide] the figure was 50%; with `O=C(Nc1cncs1)c1sccc1OCc1ccccc1` [1-65, 3-benzyloxy-N-(thiazol-5-yl)thiophene-2-carboxamide], 61%.

Still in this experiment, the particulars now being: SMS2 pure enzyme.
Compound `CCc1ccccc1COc1ccccc1C(=O)Nc1cccnc1` [12-1 (LY93), 2-(2-ethylbenzyloxy)-N-(pyridin-3-yl)benzamide, reference compound] gave an IC50 of 285 nM.

Source of the values: patent EP4768480A1, “ALKOXY THIOPHENE ACYL ARYLAMINE COMPOUNDS AND USE THEREOF” (priority 2024, dated 2025).
